Test results published in patent publication US4206116A, “Novel penicillins” (Bristol-Myers Company, priority 1978, dated 1980).
Converted amounts (≈) assume the structure as drawn. “And” between values parts separate entries of the source, which are not always exact repeats. Identical values can stand only once. Like-named read-outs stand apart in the source and are kept apart here.

How the values were obtained:
E. cloacae A9656 = test: MIC, serial two-fold agar dilution, Mueller-Hinton agar; type: cell-based; settings: Enterobacter cloacae
Protocol: (§1) Minimum inhibitory concentrations (MIC) of BB-P 652, BB-P 660 and BB-P 661 were determined by serial two-fold agar dilution method using Steer's apparatus on Mueller-Hinton agar plates against S. aureus (6 strains), cephalothinsensitive gram-negative (Gn-I, 13 strains), cephalothinresistant gram-negative (Gn-II, 6 strains) and Ps. aeruginosa (64 strains). The results are shown in Tables 1 and 2 along with piperacillin and carbenicillin.

E. coli Juhl [1] = test: as above; type: cell-based; settings: Escherichia coli
Protocol: as §1

K. pneumoniae A9977 = test: as above; type: cell-based; settings: Klebsiella pneumoniae
Protocol: as §1

P. aeruginosa A15150 = test: as above; type: cell-based; settings: Pseudomonas aeruginosa
Protocol: as §1

P. aeruginosa A9843 = test: as above; type: cell-based; settings: Pseudomonas aeruginosa
Protocol: as §1

P. mirabilis A9900 = test: as above; type: cell-based; settings: Proteus mirabilis
Protocol: as §1

P. vulgaris A9539 = test: as above; type: cell-based; settings: Proteus vulgaris
Protocol: as §1

S. aureus BX-1633 = test: as above; type: cell-based; settings: Staphylococcus aureus, BX1633
Protocol: as §1

S. aureus Smith [2] = test: as above; type: cell-based; settings: Staphylococcus aureus
Protocol: as §1

P. aeruginosa = test: MIC, serial two-fold agar dilution, Mueller-Hinton agar (third P. aeruginosa line, strain not given); type: cell-based; settings: Pseudomonas aeruginosa
Protocol: as §1

[3] = system: Gram-negative (Gn-I), cephalothin-sensitive, 13 strains; test: Mean % relative activity to carbenicillin from geometric mean MIC; type: cell-based; settings: for Mean % relative activity (carbenicillin = 100%): Gram-negative (Gn-I), 13 strains, from geometric mean of MIC
Protocol: as §1

[4] = system: Gram-negative (Gn-II), cephalothin-resistant, 6 strains; test: as above; type: cell-based; settings: for Mean % relative activity (carbenicillin = 100%): Gram-negative (Gn-II), 6 strains, from geometric mean of MIC
Protocol: as §1

[5] = system: Ps. aeruginosa (64 strains); test: as above; type: cell-based; settings: for Mean % relative activity (carbenicillin = 100%): Ps. aeruginosa, 64 strains, from geometric mean of MIC
Protocol: as §1

S. aureus (6 strains) = test: as above; type: cell-based; settings: from geometric mean of MIC
Protocol: as §1

S. aureus Smith [6] = test: PD50 (mice, im); type: in vivo; settings: Staphylococcus aureus
E. coli Juhl [7] = test: PD50 (mice, im); type: in vivo; settings: Escherichia coli
Ps. aerug. A9843 = test: PD50 (mice, im); type: in vivo; settings: for ED50: Mus musculus
[8] = Blood Level (im, 20mg/kg); type: in vivo; settings: for half-life / Cmax: blood; for Cmax: read-out: Blood Level peak conc.
gram-positive bacteria = test: In vitro activity against gram-positive bacteria (summary of MIC); type: cell-based; settings: in words
Protocol: as §1

gram-negative bacteria = test: In vitro gram-negative activity of the isomers (summary of MIC); type: cell-based; settings: in words
Protocol: as §1

Pseudomonas = test: Antipseudomonal activity of HPLC fractions; type: cell-based; settings: fractions of preparative HPLC of crude BB-P661
Excerpt: The result is shown below:

[9] = E. coli Juhl, agar dilution, Mueller-Hinton agar, read-out: MIC
[10] = P. aeruginosa A9843, agar dilution, Mueller-Hinton agar, read-out: MIC

| SMILES | MIC (E. cloacae A9656) [µg/mL] | MIC (E. coli Juhl [1]; [9]) [µg/mL] | MIC (K. pneumoniae A9977) [µg/mL] | MIC (P. aeruginosa A15150) [µg/mL] | MIC (P. mirabilis A9900) [µg/mL] | MIC (P. vulgaris A9539) [µg/mL] | MIC (S. aureus BX-1633) [µg/mL] | MIC (S. aureus Smith [2]) [µg/mL] | MIC (P. aeruginosa) [µg/mL] | Mean % relative activity (carbenicillin = 100%) [3] [%] | Mean % relative activity (carbenicillin = 100%) [4] [%] | Mean % relative activity (carbenicillin = 100%) [5] [%] | Mean % relative activity (carbenicillin = 100%) (S. aureus (6 strains)) [%] | ED50 (S. aureus Smith [6]) [mg/kg] | ED50 (E. coli Juhl [7]) [mg/kg] | ED50 (Ps. aerug. A9843) [mg/kg] | half-life ([8]; im, 20 mg/kg) [min] | Cmax ([8]; im, 20 mg/kg, im) [ng/mL] | activity against gram-positive bacteria, compared with each other (gram-positive bacteria) | MIC (P. aeruginosa A9843; [10]) [µg/mL] | other results |
| --- | --- | --- | --- | --- | --- | --- | --- | --- | --- | --- | --- | --- | --- | --- | --- | --- | --- | --- | --- | --- | --- |
| CCN1CCN(C(=O)NC(C(=O)N[C@@H]2C(=O)N3[C@@H]2SC(C)(C)[C@@H]3C(=O)O)c2ccc(O)c(O)c2)C(=O)C1=O (mixture of isomers) [BB-P 652, Sodium 6-[DL-α-(4-ethyl-2,3-dioxo-1-piperazinocarboxamido)-α-3,4-dihydroxyphenylacetamido]penicillanate] | 1.6 | 0.8 | 0.05 | 50 | 0.8 | 0.8 | 12.5 | 6.3 | 6.3 | 1780 | 112 | 271 | 25 | 4.5 | 1.8 | 30 | 32 | 8300 | almost as active as each other | – | MIC (P. aeruginosa A9843; A9843): 3.1 µg/mL; Blood Level half life ([8]; im, 20 mg/kg): 39 min; Blood Level peak conc. ([8]; im, 20 mg/kg): 4500 ng/mL; potency against gram-positive bacteria, compared with piperacillin (gram-positive bacteria): less potent than piperacillin |
| CCN1CCN(C(=O)N[C@H](C(=O)N[C@@H]2C(=O)N3[C@@H]2SC(C)(C)[C@@H]3C(=O)O)c2ccc(O)c(O)c2)C(=O)C1=O [BB-P 660, Sodium 6-[L-α-(4-ethyl-2,3-dioxo-1-piperazinocarboxamido)-α-3,4-dihydroxyphenylacetamido]penicillanate] | 12.5 | 6.3 | 0.8 | > 100 | 12.5 | > 100 | 12.5 | 6.3 | > 100 | 200 | 6 | 26 | 22 | 7.3 | 7.2 | > 100 | 39 | 4000 | almost as active as each other | > 100 | potency against gram-positive bacteria, compared with piperacillin (gram-positive bacteria): less potent than piperacillin; gram-negative activity, compared among the three isomers (gram-negative bacteria): considerably decreased activity |
| CCN1CCN(C(=O)N[C@@H](C(=O)N[C@@H]2C(=O)N3[C@@H]2SC(C)(C)[C@@H]3C(=O)O)c2ccc(O)c(O)c2)C(=O)C1=O [BB-P 661, Sodium 6-[D-α-(4-ethyl-2,3-dioxo-1-piperazinocarboxamido)-α-(3,4-dihydroxyphenyl)acetamido]penicillinate] | 1.6 | 0.4 | 0.025 | 12.5 | 0.4 | 0.4 | 12.5 | 6.3 | 0.8 | 3030 | 178 | 418 | 22 | 6.25 | 1.8 | 25 | 28 | 4000 | almost as active as each other | 0.8 | times more active than piperacillin against cephalothin-sensitive gram-negative organisms ([3]; versus piperacillin): about 8 times; activity compared with piperacillin against cephalothin-resistant strains ([4]; in words): slightly less active; activity compared with piperacillin against Pseudomonas ([5]; in words): slightly less active; potency against gram-positive bacteria, compared with piperacillin (gram-positive bacteria): less potent than piperacillin; gram-negative activity, compared among the three isomers (gram-negative bacteria): the most active of the three isomers; antipseudomonal activity (Pseudomonas): exhibited antipseudomonal activity |
| CC1(C)S[C@@H]2[C@H](NC(=O)C(C(=O)O)c3ccccc3)C(=O)N2[C@H]1C(=O)O (some centres unmarked) [carbenicillin, reference compound] | 1.6 (≈ 4.23 µM) | 3.1 (≈ 8.19 µM) | 1.6 (≈ 4.23 µM) | 25 (≈ 66.1 µM) | 0.8 (≈ 2.11 µM) | 1.6 (≈ 4.23 µM) | 3.1 (≈ 8.19 µM) | 0.2 (≈ 0.529 µM) | > 100 | – | – | – | – | – | – | – | – | – | – | 100 (≈ 264 µM) | – |
| CCN1CCN(C(=O)N[C@@H](C(=O)N[C@@H]2C(=O)N3[C@@H]2SC(C)(C)[C@@H]3C(=O)O)c2ccccc2)C(=O)C1=O [piperacillin, reference compound] | 1.6 (≈ 3.09 µM) | – | 0.8 (≈ 1.55 µM) | 3.1 (≈ 5.99 µM) | 0.8 (≈ 1.55 µM) | 0.4 (≈ 0.773 µM) | 3.1 (≈ 5.99 µM) | 0.8 (≈ 1.55 µM) | 25 (≈ 48.3 µM) | 360 | 224 | 637 | 56 | 0.8 | 3.3 | 45 | 29 | 4900 | – | 6.3 (≈ 12.2 µM) | MIC (E. coli Juhl [1]): 1.6 µg/mL (≈ 3.09 µM); PD50 (Ps. aerug. A9843; listed as B-P 606): 35 mg/kg and 25 mg/kg and 40 mg/kg; half-life ([8]; sc, 20 mg/kg, route: sc (footnote 2)): 44 min; Blood Level peak conc. ([8]; im, listed as B-P 606, 20 mg/kg): 6200 ng/mL and 9000 ng/mL; Blood Level half life ([8]; route: sc (footnote 2), listed as B-P 606, 20 mg/kg): 30 min |
